Test results as given in PMC9578392, “Safety, Tolerability, and Pharmacokinetics of the Novel Antiviral Agent Ensitrelvir Fumaric Acid, a SARS-CoV-2 3CL Protease Inhibitor, in Healthy Adults” (Antimicrobial Agents and Chemotherapy, 2022).

Columns and labels:
CYP3A = assay: Drug-drug interaction with midazolam (cohort G)
Omicron = system: Omicron; parameters: method as in PMID 35081300; settings: cited from earlier work
[1] = in vivo; cited from earlier work
[2] = midazolam 2 mg, ensitrelvir 750/250 mg

Cc1ncc2n1-c1ccc(Cl)cc1C(c1ccccc1F)=NC2 [Midazolam, midazolam]
increase of AUC0-last of midazolam coadministered with ensitrelvir vs midazolam alone (CYP3A; ensitrelvir 750/250 mg, day 6): 7.23 fold | increase of Cmax of midazolam coadministered with ensitrelvir vs midazolam alone (CYP3A; ensitrelvir 750/250 mg, day 6): 2.78 fold | half-life (CYP3A; human, in vivo): 9.13 h | AUC(0-inf) (CYP3A; human, in vivo, 2 mg): 35.7 ng·h/mL | AUC(0-t) (CYP3A; human, in vivo, 2 mg): 34.7 ng·h/mL | Cmax (CYP3A; human, in vivo, 2 mg): 16.2 ng/mL | MRT (CYP3A; human, in vivo, 2 mg): 4.11 h | half-life (CYP3A; human, in vivo, 2 mg): 4.36 h | k el (CYP3A; human, in vivo, 2 mg): 4.42e-05 s⁻¹ | AUC0-inf, GLS mean (90% CI) ratio (midazolam with ensitrelvir/midazolam alone) (CYP3A; [2]): 8.8002 (6.7061/11.5484) | AUC0-last, GLS mean (90% CI) ratio (midazolam with ensitrelvir/midazolam alone) (CYP3A; [2]): 7.2293 (5.5817/9.3632) | Cmax, GLS mean (90% CI) ratio (midazolam with ensitrelvir/midazolam alone) (CYP3A; [2]): 2.7763 (2.3341/3.3022) | MRT, GLS mean (90% CI) ratio (midazolam with ensitrelvir/midazolam alone) (CYP3A; [2]): 2.8734 (2.5380/3.2530) | t1/2,z, GLS mean (90% CI) ratio (midazolam with ensitrelvir/midazolam alone) (CYP3A; [2]): 2.0954 (1.9490/2.2529)

CC(C)C(=O)OC[C@H]1O[C@@H](n2ccc(NO)nc2=O)[C@H](O)[C@@H]1O [molnupiravir]
efficacy against Omicron (Omicron): efficacious

CC(C)(C)[C@H](NC(=O)C(F)(F)F)C(=O)N1C[C@H]2[C@@H]([C@H]1C(=O)N[C@H](C#N)C[C@@H]1CCNC1=O)C2(C)C [nirmatrelvir]
elimination in humans [1]: rapid

CCC(CC)COC(=O)[C@H](C)N[P@](=O)(OC[C@H]1O[C@@](C#N)(c2ccc3c(N)ncnn23)[C@H](O)[C@@H]1O)Oc1ccccc1 [remdesivir]
efficacy against Omicron (Omicron): efficacious
